Assay results as given in ChEMBL document CHEMBL4425107, “Monothiocarbamates Strongly Inhibit Carbonic Anhydrases in Vitro and Possess Intraocular Pressure Lowering Activity in an Animal Model of Glaucoma” (J Med Chem, 2016).
pKi: −log10 of the molar value. The source made the active and inactive calls. The calls are words filed in the database; no cut-off is given here.

Legend:
[1] = target: Carbonic anhydrase 2 (Homo sapiens, UniProt P00918); assay: Inhibition of human carbonic anhydrase 2 preincubated for 15 mins by CO2 hydration stopped-flow assay
[2] = target: Carbonic anhydrase 9 (Homo sapiens, UniProt Q16790); assay: Inhibition of human carbonic anhydrase 9 catalytic domain preincubated for 15 mins by CO2 hydration stopped-flow assay
[3] = target: Carbonic anhydrase 1 (Homo sapiens, UniProt P00915); assay: Inhibition of human carbonic anhydrase 1 preincubated for 15 mins by CO2 hydration stopped-flow assay
Chain of Carbonic anhydrase 1 (P00915 whole entry): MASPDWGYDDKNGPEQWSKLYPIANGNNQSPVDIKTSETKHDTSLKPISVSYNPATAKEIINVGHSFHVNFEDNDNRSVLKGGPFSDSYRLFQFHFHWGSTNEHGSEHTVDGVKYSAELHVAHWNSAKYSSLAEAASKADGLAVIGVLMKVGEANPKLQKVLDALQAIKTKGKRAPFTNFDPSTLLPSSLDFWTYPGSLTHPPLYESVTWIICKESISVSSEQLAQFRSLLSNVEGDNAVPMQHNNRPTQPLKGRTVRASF

[4] = tested on: Oryctolagus cuniculus; assay: Ocular hypotensive activity in sterile hypertonic saline injected hypertensive New Zealand white rabbit assessed as reduction in intraocular pressure at 1 % administered as eye drops up to 240 mins post injection; type: functional, organism-based

For `O=C(S)N1CCOCC1`, the pKi [1] was under 5.70 and the pKi [2] was 7.87.
For `CCCCN(CC)C(=O)S`, the pKi [1] was under 5.70 and the pKi [2] was 8.21.
With `CN1CCN(NC(=O)S)CC1` the pKi [2] was 8.11 and the pKi [3] was under 5.70.
`CCCN(CCC)C(=O)S` showed a pKi [2] of 7.90 and a pKi [3] of under 5.70.
Work on `CCOC(=O)CN(C)C(=O)S` yielded a pKi [2] of 7.66.
`O=C(S)N1CCN(c2ccc(C(F)(F)F)cc2)CC1` was tested, and the pKi [2] was 7.93 and the pKi [3] was under 5.70.
With `O=C(CN1CCN(C(=O)S)CC1)NC1CCCCC1` the pKi [2] was 7.85 and the Activity [4] was “Active”.
`O=C(S)N1CCN(c2ccc(F)cc2)CC1` showed a pKi [2] of 8.19.
Compound `CCCCN(CCCC)C(=O)S` has a pKi [1] of under 5.70 and a pKi [2] of 8.17.
With `CC(C)CN(CC(C)C)C(=O)S` the pKi [2] was 8.04.
For `O=C(S)N1CCN(c2cccc(Cl)c2)CC1`, the pKi [1] was under 5.70 and the pKi [2] was 8.31.
Work on `COc1ccc(CCNC(=O)S)cc1OC` yielded a pKi [2] of 7.82.
With `CN(Cc1ccccc1)C(=O)S` the pKi [1] was under 5.70, the pKi [2] was 7.93 and the pKi [3] was under 5.70.
For `O=C(S)NCCc1ccccc1`, the pKi [2] was 7.67, the pKi [3] was under 5.70 and the Activity [4] was “Active”.
